Earlier results, collected in PMC10590117 (International Journal of Nanomedicine, 2023).

Settings: humans

## COc1cc(/C=C/C(=O)CC(=O)/C=C/c2ccc(O)c(OC)c2)ccc1O [curcumin, Curcumin]
  Peroral bioavailability: ~1%
